Five substances from US11214624B2, “Method to prevent cancer metastasis and inhibit inflammation by inhibition of p68 interaction with calmodulin” (Proda Biotech LLC, priority 2012, dated 2022) can be followed below.

One assay has as its target T1, p68-CaM interaction (Homo sapiens, UniProt P0DP23).
T1 construct: co-immunoprecipitation with extracts of SW480 cells using an antibody against CaM; endogenous in cells; host or cells: SW480
Description: p68-CaM co-immunoprecipitation in scratch-wound treated SW480 cells. The assay is classed as cell-based. The settings on record: co-immunoprecipitation with antibody against CaM. As for the experimental part: Scratch-wound treatments: A scratch or multiple scratches using pipette tips were introduced into a 6 well cell culture plate. The cells were further cultured under serum starvation for 30 minutes, and were subsequently cultured for an additional indicated time. The scratch-treated cells were either directly visualized by microscopes or the cells were fixed and subsequently examined by immunostaining. Alternatively, the cells were collected and lysized. The prepared cellular extracts were then used for other analyses.
CaM beads pull-down assay was used to determine whether the PepIQ peptide affected the p68 and CaM interaction. […] Thus, the p68-CaM interaction was examined under migration stimuli by co-immunoprecipitation with extracts of SW480 cells using an antibody against CaM. […] Similarly, there was a strong increase in the p68 and CaM co-precipitation upon the EGF treatment.
To test whether the PepIQ abolished the enhancement of the p68-CaM interaction induced by cell migration, the p68-CaM interaction was probed in cell lysate of SW480 cells that were treated by the peptide.

The next assay has as its system SW480 cells. Description: Boyden chamber cell migration assay, SW480. In kind it is cell-based. The method, then: (§1) Boyden chamber assay: QCM™ 24-Well Fluorimetric Cell Migration Assay kit was used to measure the migration of SW480 cells. The test cells were first treated under the different conditions in regular cell culture plates. The treated cells were re-suspended into optimum medium (without serum) and seeded into the inner chamber of the migration assay kit. The L-15 culture medium with 10% FBS was added to the outer chambers. After overnight incubation, medium in the inner chamber was removed and the cells attached to the outer bottom side were detached using the cell detachment buffer (included in the kit). The detached cells were then lysed using the cell lysis buffer (included in the kit). The amounts of the migrated cells were determined by measuring the fluorescence using λex=485 nm and λem=535 nm. The migration of the control cells with p68 knockdown was defined as 1.

Assay [1] concerns SW620 xenograft. Description: Metastasis inhibition of SW620 xenograft (human CK-18 RT-PCR of spleen extracts). The assay is classed as in vivo, nude mice. On the technique in general: A xenograft is tissue or cells of one species grown in another, often human tumour cells in immunodeficient mice.
Another assay has as its system E-cadherin and vimentin. Description: PDGF stimulated EMT, cellular levels of EMT markers. The assay is classed as cell-based. An excerpt:
We also examined whether the peptides would abolish PDGF stimulated EMT by analyzing the cellular levels of EMT markers, E-cadherin and vimentin. […] The effect of the PepIQ peptide on cancer metastasis was confirmed by an additional treatment using the PepIQ and a control peptide with a scrambled sequence (PepScram) (FIG. 6, Table 2, Table 4).

Assay [2] concerns SW620 xenograft. As to the kind of experiment: Metastasis inhibition of SW620 xenograft (human CK-18 RT-PCR of spleen extracts). The settings on record: for Effect on SW620 metastasis: peptide 2 mg/kg i.p. daily for two weeks. In kind it is in vivo, nude mice. As for the experimental part:
(§2) Metastasis inhibition of SW620 xenograft and orthotopic 4T1 tumors: All animal experiments were carried out in accordance with the guidelines of IACUC of Georgia State University. Nude mice or Balb/c mice (6 to 7 weeks old, Harlan Laboratory) were subcutaneously or orthotopically injected with 5×10^6 SW620 or 2×10^6 4T1 cells. Peptides at appropriate doses were administered to the tumor bearing mice by intraperitoneal (i.p.) injection at appropriate time intervals. Tumor formation and volumes were assessed every 2 days. Tumor volumes were measured by two perpendicular diameters of the tumors over a 4-week time course with the formula 4p/3×(width/2)^2×(length/2). The tumors and organs were collected and weighed at the end of the experiments. Tissue sections were prepared from harvested tumors and organs. Tissue sections were analyzed by either H&E or immune staining. For metastasis analyses of SW620 tumors, tissue extracts were prepared from spleens, total RNAs were extracted from the tissue extracts. RT-PCRs were performed with the isolated RNAs. For metastasis of 4T-1 cells, lung and liver were inspected.
The peptides were used to treat a nude mice xenograft of SW620 cells at dose of 2 mg/kg (i.p. daily dose for two weeks). SW620 cells were used because they contain high p68 Y593 phosphorylation (Carter, C L, et al. Oncogene 29:5427-5436 (2010); Yang, L, et al. Mol Cancer Res 3:355-363 (2005)). It is well established that the xenograft of SW620 will metastasize to lymph nodes, and the metastasis can be analyzed by examination of SW620 cells in the spleen (Liu, K, et al. J Immunol 171:4164-4174 (2003)).

The test system of a further assay is 4T1 cells. Description: 4T1 cell migration (Boyden chamber and scratch-wound assays). In kind it is cell-based, mouse. The method, then: as §1, with “Scratch-wound treatments: A scratch or multiple scratches using pipette tips were introduced into a 6 well cell culture plate. The cells were further cultured under serum starvation for 30 minutes, and were subsequently cultured for an additional indicated time. The scratch-treated cells were either directly visualized by microscopes or the cells were fixed and subsequently examined by immunostaining. Alternatively, the cells were collected and lysized. The prepared cellular extracts were then used for other analyses. Boyden” for “Boyden”, “1. […]” for “1.”

The test system of assay [3] is Mouse breast cancer 4T1 cells. As to the kind of experiment: Orthotopic 4T1 tumor metastasis model. In kind it is in vivo, Balb/c mouse. As for the experimental part: as §2
The PepIQ was very effective in inhibiting cancer metastasis with xenograft model of SW620 cells, indicating a potential application for metastasis intervention using the peptide or its derivatives. Thus, the effects of the peptide on metastasis in another cancer model was tested. Mouse breast cancer 4T1 cells were implanted into mammary gland of Balb/c mouse. Four days post-tumor implantation, the mice were treated by the PepIQ, the control peptide (PepScram), and buffer by 2 mg/kg daily dose for 14 days via i.p. injection. The mice were sacrificed at 26 days after tumor implantation. The primary tumors and major metastasis organs, lungs and liver, were collected and examined. […] The numbers of visible metastatic nodules in lung in the PepIQ treated group were much less and the nodules were much smaller than those in the PepScram and buffer treated groups (FIGS. 5B-5D). […] To test whether the PepIQ also affected the cell migration of 4T1 cells, cell migration assays were conducted.

The target of the next assay is T2, IQGAP1-CaM interaction (Homo sapiens, UniProt P0DP23).
T2 construct: endogenous in cells; host or cells: SW480
Description: IQGAP1-CaM co-immunoprecipitation in SW480 cell extracts. The assay is classed as cell-based. The settings on record: SW480 cells with/without multiple scratch-wound. As for the experimental part: (§3) To test whether the PepIQ peptide disrupted the interaction of IQGAP1 or Myosin-II with CaM, cell extracts of SW480 cells that were treated by the PepIQ with/without multiple scratch-wound were co-immunoprecipitated using the antibody against CaM. […] The results also excluded a possibility that the PepIQ sequestered all CaM in the cells therefore inhibited cell migration. Thus, these experiments supported the notion that cell migration strengthened the p68-CaM interaction, and the IQ peptide disrupted the p68-CaM interaction induced by migration, thereby inhibiting cell migration.

The target in another assay is T3, p68 and CaM interaction (Homo sapiens, UniProt P0DP23).
T3 construct: purchased Abcam; host or cells: p68 comes from SW480 whole cell lysate (endogenous)
As to the kind of experiment: CaM beads pull-down of p68. The assay is classed as binding. The following applies: no migration stimuli. The method, then: CaM beads pull-down assay was used to determine whether the PepIQ peptide affected the p68 and CaM interaction. […] Thus, the p68-CaM interaction was examined under migration stimuli by co-immunoprecipitation with extracts of SW480 cells using an antibody against CaM. […] Similarly, there was a strong increase in the p68 and CaM co-precipitation upon the EGF treatment. Calmodulin beads pull-down: Whole cell lysate from SW480 cells was prepared as previously described (Yang L, et al. Cell 127:139-155 (2006); Yang L, et al. Mol Cancer Res 3:355-363 (2005)). The agarose beads conjugated with recombinant calmodulin (Abcam) were pre-washed with Ca2+ containing buffer (2 mM CaCl2, 50 mM NaCl in 50 mM Tris-HCl pH 7.5) or EGTA containing buffer (5 mM EGTA, 50 NaCl in 50 mM Tris-HCl pH 7.5). After washing, the beads were incubated with the whole cell lysates in the Ca^2+ containing or EGTA containing buffer. The beads were extensively washed after incubation. Finally, 2× SDS-loading buffer were added to the beads and the beads were heated to 85° C. for 10 minutes. The proteins that were pulled down by the CaM beads were analyzed by 10% SDS PAGE and subsequent immunoblot.

In assay [4] the target is T4, Myosin-II-CaM interaction (Homo sapiens, UniProt P0DP23).
T4 construct: endogenous in cells; host or cells: SW480
As to the kind of experiment: Myosin-CaM co-immunoprecipitation in SW480 cell extracts. The settings on record: SW480 cells with/without multiple scratch-wound. The assay is classed as cell-based. As for the experimental part:
as §3

The test system of assay [5] is Rhodamine labeled microtubules. As to the kind of experiment: Microtubule gliding assay. The assay is classed as biochemical. Also noted: % of gliding microtubules (n = 50): dose or concentration left out as unconfirmed. The following applies: for % of gliding microtubules (n = 50): only MTs with gliding speed >0.025 μm/min counted; for Mean gliding speed: only MTs with motility >0.05 μM/min.
Description: The slide was blocked with the blocking buffer. For the slide loaded with HA-p68, 10 μl of calmodulin with 0.5 mM of Ca^2+ was added to the slide and was incubated for 10 minutes. After loading the slide was washed with the Ca^2+ containing wash buffer to remove the unbound proteins. The prepared Rodamine labeled microtubules were then loaded onto the slide. The same Ca^2+ containing wash buffer was used to remove unbound microtubules. The movement of microtubules was then recorded by the confocal microscope.
HA-p68 was purified from SW480 cells with/without scratch-wound treatment and attached to a glass slide. Rhodamine-labeled microtubule was then added to the glass slide. Migration of the microtubule in the presence and absence of ATP was then recorded.

[6] abbreviates: Table 1, TAT-fused peptides 2 mg/kg i.p. daily for two weeks, mice with metastasis/mice in group.
[7] abbreviates: vs PepScram and buffer treated groups.

“Also recorded” adds a separate entry of the source. No end group written: not given here. TAT = TAT cell-permeable sequence

“eGFP-IQ: fusion protein containing amino acids 549-568 of p68 fused to the C-terminus of eGFP, expressed in SW620/SW480 cells (FVSAGIQTSFRTGNPTGTYQ; also: fused to C-terminus of eGFP)”: the “Increase in the p68-CaM interaction upon multiple scratch wound” value in the assay with p68-CaM interaction is on record as “not dramatically strengthened”. Further, the Cell migration result in the assay with SW480 cells (stable expression in SW480 cells) was “dramatically inhibited”. In the assay with SW620 xenograft [1] (Table 3, xenograft of SW620 cells expressing the protein), the Metastasis rate is recorded as 2/6. In addition, the “Effect on cancer metastasis of the SW620 xenograft” value in the assay on SW620 xenograft [1] (protein expressed in SW620 cells) was “greatly reduced”.
With “PepY593: p68 aa 584-602 peptide MHNGMNQQAYAYPATAAAP (SEQ ID NO:2), without Y593 phosphorylation, TAT-fused at N-terminus; control peptide ({TAT}-MHNGMNQQAYAYPATAAAP)”, in the assay on E-cadherin and vimentin, the “Levels of E-cadherin and vimentin” value was “not significantly affected”. Moreover, the Metastasis rate with SW620 xenograft [2] (setting [6]) is listed as 5/5.
Regarding “PepPhoY593: p68 aa 584-602 peptide with Y593 phosphorylation, MHNGMNQQA[p]YAYPATAAAP (SEQ ID NO:3), TAT-fused at N-terminus”, in the assay with E-cadherin and vimentin, the “Levels of E-cadherin and vimentin” value is “decrease in vimentin and an increase in Ecadherin”. Moreover, the Metastasis rate in the assay with SW620 xenograft [2] (setting [6]) is given as 3/5. Besides, in the assay on SW620 xenograft [2], the “Effect on SW620 metastasis” value is on record as “almost no effects; also recorded: no effects on cancer metastasis”.
For the substance “PepIQ (FASGQINTFVSRGTPGYATGMHNGMNQQAPYAYPATAAAPFVSAGIQTSFRTGNPTGAYG)”, the “Cell migration of 4T1 cells” value in the assay with 4T1 cells was “dramatically reduced”. In [3] (2 mg/kg daily for 14 days i.p.), the “Cancer metastasis in the lung (mice affected)” value is on record as 3 out of 4 and the “Mice with no micrometastasis lesion in liver tissue sections” value was “two out of four”. Besides, the “Average numbers of micrometastasis lesions in liver” value in assay [3] (4 fields from three tissue sections per liver, vs buffer and PepScram groups) is “substantially less”. In assay [3] (setting [7]), the “Numbers of visible metastatic nodules in lung” value is given as “much less” and the “Size of metastatic nodules in lung” value is “much smaller”. In addition, the “Size of micrometastasis lesions in liver” value in assay [3] (vs control groups) is listed as “substantially smaller”. Besides, the “Levels of E-cadherin and vimentin” value in the assay with E-cadherin and vimentin is on record as “not significantly affected”. In addition, the IQGAP1-CaM interaction entry with IQGAP1-CaM interaction was “not affected”. The “Change in p68-CaM interaction” value with p68 and CaM interaction was “did not lead to dramatic changes”. The Myosin-CaM interaction result in assay [4] was “not affected”. The Cell migration result in the assay on SW480 cells (SW480 cells treated with peptide) was “almost completely inhibited”. In addition, the Metastasis rate with SW620 xenograft [2] (setting [6]) is 1/5. For the same substance, the Metastasis rate with SW620 xenograft [2] (Table 2, additional treatment, PepIQ vs scrambled control peptide) is 2/5. Further, the “Effect on SW620 metastasis” value in the assay with SW620 xenograft [2] was “largely diminished; also recorded: inhibited the metastasis”.
For the substance “p68/Ca^2+-CaM: HA-p68 immunopurified from scratch-wound treated SW480 cells, in the presence of CaM and Ca2+”, in [5] (ATP), the Maximum gliding speed was 0.52 ± 0.14 μm/min, the “% of gliding microtubules (n = 50)” value is given as 74.15 ± 1.20% and the Mean gliding speed amounted to 0.16 ± 0.12 μm/min. Besides, in [5] (no ATP), the Maximum gliding speed stood at 0.01 ± 0.00 μm/min, the “% of gliding microtubules (n = 50)” value came out at 5.79 ± 3.13% and the Mean gliding speed was 0.00 ± 0.00 μm/min.
